In PMC7044277 (Nature Communications, 2020):
Where “and” joins values, the source holds several entries; their conditions need not be identical. Identical values can stand only once.

Assays:
Assay type in all cases: cell-based
320 non-olfactory GPCRs [1] = target: T1, 320 non-olfactory GPCRs (Homo sapiens, UniProt P35408); conditions: receptor PTGER4; replicate values, Fig_4g
T1 construct: expressed in transfected cells; host or cells: HTLA cells

320 non-olfactory GPCRs [2] = target: 320 non-olfactory GPCRs (Homo sapiens, UniProt P35462)
DRD2 S1935.42G = target: T2, DRD2 S1935.42G (Homo sapiens, UniProt P14416, S193G); assay: Gαi/o-mediated cAMP inhibition (GloSensor), mutant; conditions: DRD2 Ser5.42Gly; G-protein assay
T2 construct: expressed in transfected cells; host or cells: HEK293T (ATCC CRL-11268)

DRD2 S1975.46G = target: T3, DRD2 S1975.46G (Homo sapiens, UniProt P14416, S197G); assay: Gαi/o-mediated cAMP inhibition (GloSensor), mutant; conditions: DRD2 Ser197^5.46Gly; G-protein assay
T3 construct: expressed in transfected cells; host or cells: HEK293T (ATCC CRL-11268)

DRD1 = DRD1 (Homo sapiens, UniProt P21728); assay: β-arrestin2 recruitment (Tango); conditions: agonist mode
5HT1D = 5HT1D (Homo sapiens, UniProt P28221); assay: β-arrestin2 recruitment (Tango); conditions: agonist activity only at high concentrations
5HT2C = target: T4, 5HT2C (Homo sapiens, UniProt P28335); assay: β-arrestin2 recruitment (Tango); conditions: Fig_S10m; for β-arrestin2 recruitment response in presence of serotonin (replicate values): +10μM serotonin; for β-arrestin2 recruitment response (dose-response source data, replicate values): drug alone
T4 sequence (P28335 33-458): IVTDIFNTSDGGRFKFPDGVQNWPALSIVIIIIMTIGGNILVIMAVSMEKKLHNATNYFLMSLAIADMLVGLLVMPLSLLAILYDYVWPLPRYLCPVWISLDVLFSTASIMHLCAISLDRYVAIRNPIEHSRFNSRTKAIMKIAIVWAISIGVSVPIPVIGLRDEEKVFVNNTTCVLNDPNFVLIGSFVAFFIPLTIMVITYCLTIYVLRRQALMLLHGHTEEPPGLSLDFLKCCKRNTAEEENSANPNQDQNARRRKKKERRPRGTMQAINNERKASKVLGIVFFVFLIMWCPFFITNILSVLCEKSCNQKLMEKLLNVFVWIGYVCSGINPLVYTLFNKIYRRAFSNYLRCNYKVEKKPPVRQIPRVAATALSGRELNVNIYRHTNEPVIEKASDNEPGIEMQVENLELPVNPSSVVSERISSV
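For Fold of Basal in this document: compound tested at 1 µM final concentration.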
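For GPCRome agonism screen response in this document: fold over basal response of each receptor without drug.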

T1 sequence (P35408 whole entry): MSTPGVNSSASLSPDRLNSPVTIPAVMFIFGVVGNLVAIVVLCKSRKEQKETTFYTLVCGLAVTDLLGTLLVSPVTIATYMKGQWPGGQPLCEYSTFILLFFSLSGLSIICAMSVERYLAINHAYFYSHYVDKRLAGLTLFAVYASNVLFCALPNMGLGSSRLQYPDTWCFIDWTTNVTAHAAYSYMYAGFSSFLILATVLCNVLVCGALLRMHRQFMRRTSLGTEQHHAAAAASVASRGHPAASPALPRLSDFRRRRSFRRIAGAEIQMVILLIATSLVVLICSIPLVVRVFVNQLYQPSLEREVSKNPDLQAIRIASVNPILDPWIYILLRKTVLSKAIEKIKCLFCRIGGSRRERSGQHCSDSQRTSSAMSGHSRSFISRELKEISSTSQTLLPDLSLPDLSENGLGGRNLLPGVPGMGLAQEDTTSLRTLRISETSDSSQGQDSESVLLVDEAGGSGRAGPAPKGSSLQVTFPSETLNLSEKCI
Sequence of DRD1 (P21728 whole entry): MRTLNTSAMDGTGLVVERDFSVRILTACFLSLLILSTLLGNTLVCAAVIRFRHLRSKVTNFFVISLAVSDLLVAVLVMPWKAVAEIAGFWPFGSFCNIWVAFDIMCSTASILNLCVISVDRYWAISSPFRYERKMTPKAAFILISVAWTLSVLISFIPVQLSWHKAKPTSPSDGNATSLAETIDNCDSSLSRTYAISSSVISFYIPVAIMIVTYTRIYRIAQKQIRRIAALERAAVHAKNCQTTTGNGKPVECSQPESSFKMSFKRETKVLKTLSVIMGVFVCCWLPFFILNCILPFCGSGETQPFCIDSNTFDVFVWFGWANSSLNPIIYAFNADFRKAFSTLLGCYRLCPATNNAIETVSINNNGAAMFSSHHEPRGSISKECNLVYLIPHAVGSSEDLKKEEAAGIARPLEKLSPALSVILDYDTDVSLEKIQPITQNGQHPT
Sequence of 320 non-olfactory GPCRs (Homo sapiens, UniProt P35462) (P35462 whole entry): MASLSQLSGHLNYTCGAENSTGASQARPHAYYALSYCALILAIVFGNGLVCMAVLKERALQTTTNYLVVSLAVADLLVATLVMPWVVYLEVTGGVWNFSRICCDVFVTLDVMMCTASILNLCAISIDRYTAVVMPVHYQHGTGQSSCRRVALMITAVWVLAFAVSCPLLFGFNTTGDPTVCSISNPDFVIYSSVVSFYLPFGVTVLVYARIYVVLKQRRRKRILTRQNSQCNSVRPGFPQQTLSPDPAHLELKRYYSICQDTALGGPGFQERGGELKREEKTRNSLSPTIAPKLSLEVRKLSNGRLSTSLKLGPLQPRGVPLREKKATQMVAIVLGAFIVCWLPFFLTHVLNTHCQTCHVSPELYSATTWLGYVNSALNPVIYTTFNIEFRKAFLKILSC
Sequence of 5HT1D (P28221 whole entry): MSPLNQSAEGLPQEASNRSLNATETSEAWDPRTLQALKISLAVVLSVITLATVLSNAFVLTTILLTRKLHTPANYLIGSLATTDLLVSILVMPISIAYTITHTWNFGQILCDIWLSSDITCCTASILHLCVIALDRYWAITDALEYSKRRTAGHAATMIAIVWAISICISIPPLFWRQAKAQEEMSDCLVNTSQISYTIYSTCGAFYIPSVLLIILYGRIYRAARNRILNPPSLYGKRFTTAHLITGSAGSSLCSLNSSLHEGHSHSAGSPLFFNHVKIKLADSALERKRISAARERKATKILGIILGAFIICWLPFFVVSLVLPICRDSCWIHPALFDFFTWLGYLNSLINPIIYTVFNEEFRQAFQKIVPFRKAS
T3 sequence (P14416 whole entry S197G): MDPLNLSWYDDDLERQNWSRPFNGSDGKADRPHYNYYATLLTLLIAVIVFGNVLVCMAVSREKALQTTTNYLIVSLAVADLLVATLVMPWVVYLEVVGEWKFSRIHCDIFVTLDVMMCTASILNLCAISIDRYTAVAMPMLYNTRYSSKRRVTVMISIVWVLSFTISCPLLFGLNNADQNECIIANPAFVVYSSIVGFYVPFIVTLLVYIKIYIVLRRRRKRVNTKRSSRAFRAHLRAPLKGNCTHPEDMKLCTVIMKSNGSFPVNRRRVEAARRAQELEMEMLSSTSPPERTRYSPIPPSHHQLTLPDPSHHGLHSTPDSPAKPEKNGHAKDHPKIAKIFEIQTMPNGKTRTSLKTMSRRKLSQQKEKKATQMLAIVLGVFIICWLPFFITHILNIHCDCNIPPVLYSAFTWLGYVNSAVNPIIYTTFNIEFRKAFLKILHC
T2 sequence (P14416 whole entry S193G): as the sequence (P14416 whole entry S197G) above, with S193G, G197S counted along it

In the case of CCOc1cccc2cc(C(C)NCC3(O)CCCCC3)oc12 (stereo not shown) [O4LE6], the “GPCRome agonism screen response” value (320 non-olfactory GPCRs [1]) is reported as 2.508 and 1.456 and 1.732 and 0.428 and the “Fold of Basal” value (320 non-olfactory GPCRs [2]) is reported as 9.324 and 11.1304 and 9.776 and 11.3977.
With CCOc1cccc2cc([C@@H](C)NCC3(O)CCCCC3)oc12 [O4RE6] the “agonism after serine to glycine substitution” value (DRD2 S1935.42G) was “impaired”, the “agonism after serine to glycine substitution” value (DRD2 S1975.46G) was “impaired” and the “Fig_S10d concentration-response source data, compound alone (replicates)” value (DRD1; Log[Drug] -6.52) was 1.905. For the same molecule, the “Fig_S10d concentration-response source data, compound alone (replicates)” value (DRD1; Log[Drug] -7) was 1.064 and 2.282 and -0.6391 and 0.289 and -0.08278 and 0.4865 and -0.4054 and 1.577 and 0.01217, the “Fig_S10d concentration-response source data, compound alone (replicates)” value (DRD1; Log[Drug] -7.52) was 1.077 and 0.9051 and -0.1158 and 0.04295 and -0.04452 and 0.1062 and 0.53 and 4.578 and 0.07397 and the “Fig_S10d concentration-response source data, compound alone (replicates)” value (DRD1; Log[Drug] -8) was 0.3903 and 0.04289 and 0.7249 and 0.1109 and 0.1132 and -0.0164 and 0.2378 and 0.7481 and 0.5777. The “Fig_S10d concentration-response source data, compound alone (replicates)” value (DRD1; Log[Drug] -8.52) was 1.047 and 2.106 and 1.068 and 0.04686 and -0.2007 and -0.1148 and -0.01592 and 0.004682 and 0.05431, the “Fig_S10d concentration-response source data, compound alone (replicates)” value (DRD1; Log[Drug] -9) was 0.3903 and 1.591 and 1.077 and 0.9231 and 0.04452 and 0.3311 and -0.4785 and 2.978 and 0.1554 and the “Fig_S10d concentration-response source data, compound alone (replicates)” value (DRD1; Log[Drug] -9.52) was 0.3689 and -0.1244 and 0.7292 and 0.2936 and 0.3303 and 0.01406 and 0.5824 and 0.412 and 0.617. For the same molecule, the “Fig_S10d concentration-response source data, compound alone (replicates)” value (DRD1; Log[Drug] -10) was 7.429 and 0.8836 and 0.03432 and 0.6724 and -0.1109 and 0.4569 and -0.09176 and 0.9157 and -0.1386, the “Fig_S10d concentration-response source data, compound alone (replicates)” value (DRD1; Log[Drug] -10.52) was -0.3217 and 1.253 and 1.072 and 0.2647 and -0.2624 and -0.04452 and -0.9541 and 0.426 and 0.1283 and the “Fig_S10d concentration-response source data, compound alone (replicates)” value (DRD1; Log[Drug] -11) was 0.05147 and 1.072 and 2.964 and 0.7974 and -0.07497 and -0.2936 and -0.2444 and 1.441 and -0.4363. The “Fig_S10d concentration-response source data, compound alone (replicates)” value (DRD1; Log[Drug] -11.52) was 1.244 and 0.2102 and -0.6649 and -0.01562 and -0.1695 and 0.02187 and -0.1648 and 0.6545 and -0.5449, the “Fig_S10d concentration-response source data, compound alone (replicates)” value (DRD1; Log[Drug] -12) was 0.04289 and 4.504 and 6.396 and -0.1351 and 0.3358 and -0.1991 and -0.1554 and -0.2734 and -0.1919 and the “concentration at which the receptor is activated” value (5HT1D) was “over 1 μM”. The “β-arrestin2 recruitment response in presence of serotonin (replicate values)” value (5HT2C; Log[Drug] -5) was 58.3147 and 46.4286 and 67.806 and 58.4132 and 79.4697 and 68.0017 and 93.0961 and 72.2806 and 97.8926, the “β-arrestin2 recruitment response (dose-response source data, replicate values)” value (5HT2C; Log[Drug] -5) was 0.7157 and -0.5401 and -1.168 and 2.766 and 0.7235 and 1.739 and 11.316 and 1.077 and 3.549 and the “β-arrestin2 recruitment response in presence of serotonin (replicate values)” value (5HT2C; Log[Drug] -5.52) was 54.8113 and 63.0121 and 49.2529 and 68.8758 and 64.9488 and 66.315 and 83.0753 and 67.6275 and 72.9664. For the same molecule, the “β-arrestin2 recruitment response (dose-response source data, replicate values)” value (5HT2C; Log[Drug] -5.52) was 1.749 and 2.795 and -1.663 and 3.765 and 1.711 and -0.08172 and 1.356 and 7.494 and -2.02, the “β-arrestin2 recruitment response in presence of serotonin (replicate values)” value (5HT2C; Log[Drug] -6) was 55.8065 and 61.1873 and 58.6737 and 61.6241 and 75.6253 and 78.232 and 62.8429 and 85.8382 and 64.0091 and the “β-arrestin2 recruitment response (dose-response source data, replicate values)” value (5HT2C; Log[Drug] -6) was 3.06 and -0.5319 and 0.7534 and 2.096 and -0.5619 and -0.6198 and -1.437 and 2.573 and 0.749. For the same molecule, the “β-arrestin2 recruitment response in presence of serotonin (replicate values)” value (5HT2C; Log[Drug] -6.52) was 70.8253 and 57.3668 and 57.1998 and 54.2043 and 49.8953 and 65.9707 and 67.8605 and 93.5331 and 78.9014, the “β-arrestin2 recruitment response (dose-response source data, replicate values)” value (5HT2C; Log[Drug] -6.52) was -0.8494 and -0.7143 and 0.1419 and 1.691 and -0.2222 and -0.8824 and 6.685 and 2.505 and 2.238 and the “β-arrestin2 recruitment response in presence of serotonin (replicate values)” value (5HT2C; Log[Drug] -7) was 78.7809 and 65.1211 and 66.7181 and 78.276 and 64.6889 and 65.4492 and 69.2492 and 67.696 and 63.7064. The “β-arrestin2 recruitment response (dose-response source data, replicate values)” value (5HT2C; Log[Drug] -7) was -1.487 and -0.5714 and -1.709 and 1.211 and 0.5059 and 0.1139 and 0.4054 and 1.8599 and -0.4067, the “β-arrestin2 recruitment response in presence of serotonin (replicate values)” value (5HT2C; Log[Drug] -7.52) was 60.5159 and 63.0454 and 62.4237 and 65.5364 and 59.1349 and 50.606 and 95.9761 and 69.8099 and 82.5107 and the “β-arrestin2 recruitment response (dose-response source data, replicate values)” value (5HT2C; Log[Drug] -7.52) was 4.965 and 0.04923 and -3.23 and 2.115 and 1.39 and -0.6014 and 1.1728 and 0.6792 and -0.974. The “β-arrestin2 recruitment response in presence of serotonin (replicate values)” value (5HT2C; Log[Drug] -8) was 71.3267 and 75.4455 and 66.4208 and 75.6262 and 64.4484 and 59.5931 and 70.3904 and 75.8595 and 73.1664, the “β-arrestin2 recruitment response (dose-response source data, replicate values)” value (5HT2C; Log[Drug] -8) was 1.2751 and -0.6351 and 2.803 and -0.01928 and -0.2938 and -0.4398 and 3.201 and 7.224 and -1.315 and the “β-arrestin2 recruitment response in presence of serotonin (replicate values)” value (5HT2C; Log[Drug] -8.52) was 58.0598 and 61.1071 and 60.9165 and 75.2534 and 73.2353 and 72.7725 and 80.2506 and 68.3081 and 73.8075. The “β-arrestin2 recruitment response (dose-response source data, replicate values)” value (5HT2C; Log[Drug] -8.52) was 1.412 and -1.374 and -2.167 and -0.9173 and -0.6234 and -0.001836 and -1.0517 and 2.438 and -0.7292, the “β-arrestin2 recruitment response in presence of serotonin (replicate values)” value (5HT2C; Log[Drug] -9) was 62.3446 and 66.0878 and 69.0787 and 68.4846 and 71.5679 and 75.9558 and 57.0421 and 71.8594 and 68.3133 and the “β-arrestin2 recruitment response (dose-response source data, replicate values)” value (5HT2C; Log[Drug] -9) was 8.947 and 0.2944 and -1.358 and 0.06794 and 1.215 and 1.023 and 1.659 and -1.676 and 1.911. For the same molecule, the “β-arrestin2 recruitment response in presence of serotonin (replicate values)” value (5HT2C; Log[Drug] -9.52) was 55.4527 and 57.9556 and 67.8156 and 72.3217 and 60.5213 and 59.5912 and 64.5922 and 60.3604 and 70.7827 and the “β-arrestin2 recruitment response (dose-response source data, replicate values)” value (5HT2C; Log[Drug] -9.52) was 0.7577 and 0.9406 and -1.056 and 0.774 and -0.8934 and -0.3755 and 4.117 and -0.7424 and 3.815.
